Data as given in patent publication US10858351B2, “Substituted tetrahydropyridine derivatives as IDO-1 inhibitors and uses thereof” (Alberta Research Chemicals Inc., priority 2017, dated 2020).

How the values were obtained:
Assay type in all cases: cell-based
[1] = system: Human ID01/HEK293 cells; test: HEK Human IDO-1 cells, Basal Viability; conditions: Primary CRC, HEK Human IDO-1 cell viability, read-out: Basal_Viability Rel IC50
Description: (§1) Human ID01/HEK293 cells were seeded at 10,000 cells per 50 μL per well with RP Ml/phenol red free media containing 10% FBS in a 384-well black wall clear bottom tissue culture plate (Matrix Technologies LLC). 125 nL of certain concentration of compound was then added to each well using ECHO liquid handling systems. The cells were incubated for 20 hours in 37° C. incubator with 5% CO2.

[2] = target: T1, Human IDO-1 (Homo sapiens, UniProt P14902); test: IDO Kynurenine Assay with Human IDO1/HEK293 cells (Basal L-Kynurenine readout); conditions: HEK Human IDO-1; for inhibition at 10 µM: HEK293, Primary SP, 10 μM compound, read-out: Basal_L-Kynurenine (IDO1 % inhib @ 10 μM); for IC50: Primary CRC, read-out: Basal_L-Kynurenine IDO1 Rel IC50
Description: (§2) Compounds described in the Examples above were tested for inhibition of IDO activity with IDO Kynurenine Assay with Human ID01/HEK293 Cells.
as §1
The compound treatments were stopped by adding trichloroacetic acid (Sigma-Aldrich) to a final concentration at 0.2%. The cell plate was further incubated at 50° C. for 30 minute. The equal volume supernatant (20 μL) and 0.2% (w/v) Ehrlich reagent (4-dimethylaminobenzaldehyde, Sigma-Aldrich) in glacial acetic acid were mixed in a new clear bottom 384-well plate. This plate was then incubated at room temperature for 30 minute. The absorbance at 490 nm was measured on Envision plate reader.

[3] = target: T1, Human IDO-1; test: HEK Human IDO-1 cells, Basal N-formyl-kynurenine readout; conditions: Primary CRC, read-out: Basal_N-formyl-kyn IDO1 Rel IC50
Description: as §2, §1

T1 sequence (P14902 whole entry): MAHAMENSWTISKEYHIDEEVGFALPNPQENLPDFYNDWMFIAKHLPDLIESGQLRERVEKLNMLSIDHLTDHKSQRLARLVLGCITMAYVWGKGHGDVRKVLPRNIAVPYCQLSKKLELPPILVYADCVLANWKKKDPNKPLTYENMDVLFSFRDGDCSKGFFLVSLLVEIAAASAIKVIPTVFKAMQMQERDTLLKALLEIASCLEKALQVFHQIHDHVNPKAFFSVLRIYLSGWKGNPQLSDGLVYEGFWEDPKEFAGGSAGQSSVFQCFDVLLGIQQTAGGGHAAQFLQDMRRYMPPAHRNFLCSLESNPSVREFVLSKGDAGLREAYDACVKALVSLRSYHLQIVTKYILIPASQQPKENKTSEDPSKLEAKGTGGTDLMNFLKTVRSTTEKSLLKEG

## CCNC(=O)Nc1cccc(CN2CC=C(c3cccc(N4CCOCC4)n3)CC2)c1 [Example 1, 1-Ethyl-3-[3-(6-morpholin-4-yl-3′,6′-dihydro-2′H-[2,4′]bipyridinyl-1′-ylmethyl)phenyl]urea]
[1]
  IC50: > 50000 nM
[2]
  inhibition at 10 µM: > 90%
  IC50: < 2000 nM
[3]
  IC50: < 2000 nM

## O=C(Nc1cccc(CN2CC=C(c3cccc(N4CCOCC4)n3)CC2)c1)NC1CCCCC1 [Example 2, 1-Cyclohexyl-3-[3-(6-morpholin-4-yl-3′,6′-dihydro-2′H-[2,4′]bipyridinyl-1′-ylmethyl)-phenyl]-urea]
[1]
  IC50: > 50000 nM
[2]
  inhibition at 10 µM: > 90%
  IC50: < 2000 nM
[3]
  IC50: < 2000 nM

## CCNC(=O)Nc1cccc(CN2CC=C(c3cccc(N4CCCCC4)n3)CC2)c1 [Example 4, 1-Ethyl-3-[3-(6-piperidine-1-yl-3′,6′-dihydro-2′H-[2,4′]bipyridinyl-1′-ylmethyl)-phenyl]-urea]
[1]
  IC50: > 50000 nM
[2]
  inhibition at 10 µM: > 90%
  IC50: < 2000 nM
[3]
  IC50: < 2000 nM

## O=C(Nc1cccc(CN2CC=C(c3cccc(N4CCCCC4)n3)CC2)c1)NC1CCCCC1 [Example 5, 1-Cyclohexyl-3-[3-(6-piperidine-1-yl-3′,6′-dihydro-2′H-[2,4′]bipyridinyl-1′-ylmethyl)-phenyl]-urea]
[1]
  IC50: > 50000 nM
[2]
  inhibition at 10 µM: > 90%
  IC50: < 2000 nM
[3]
  IC50: < 2000 nM

## O=C(Nc1cccc(CN2CC=C(c3cccc(N4CCCCC4)n3)CC2)c1)NC1CC1 [Example 6, 1-Cyclopropyl-3-[3-(6-piperidin-1-yl-3′,6′-dihydro-2′H-[2,4′]bipyridinyl-1′-ylmethyl)-phenyl]-urea]
[1]
  IC50: > 50000 nM
[2]
  inhibition at 10 µM: > 90%
  IC50: < 2000 nM
[3]
  IC50: < 2000 nM

## CCNC(=O)Nc1cccc(CN2CC=C(c3cccc(N4CCN(C)CC4)n3)CC2)c1 [Example 7, 1-Ethyl-3-{3-[6-(4-methyl-piperazin-1-yl)-3′,6′-dihydro-2′H-[2,4′]bipyridinyl-1′-ylmethyl]-phenyl}-urea]
[1]
  IC50: > 50000 nM
[2]
  inhibition at 10 µM: < 90%
  IC50: > 2000 nM
[3]
  IC50: > 2000 nM

## CN1CCN(c2cccc(C3=CCN(Cc4cccc(NC(=O)NC5CCCCC5)c4)CC3)n2)CC1 [Example 8, 1-Cyclohexyl-3-{3-[6-(4-methyl-piperazin-1-yl)-3′,6′-dihydro-2′H-[2,4′]bipyridinyl-1′-ylmethyl]-phenyl}-urea]
[1]
  IC50: > 50000 nM
[2]
  inhibition at 10 µM: < 90%
  IC50: > 2000 nM
[3]
  IC50: > 2000 nM

## CN1CCN(c2cccc(C3=CCN(Cc4cccc(NC(=O)NC5CC5)c4)CC3)n2)CC1 [Example 9, 1-Cyclopropyl-3-{3-[6-(4-methyl-piperazin-1-yl)-3′,6′-dihydro-2′H-[2,4′]bipyridinyl-1′-ylmethyl]-phenyl}-urea]
[1]
  IC50: > 50000 nM
[2]
  inhibition at 10 µM: < 90%
  IC50: > 2000 nM
[3]
  IC50: > 2000 nM
